From patent publication US8735414B2 (priority 2009, dated 2014)

Assays:
[1] = test system: bicistronic HCV replicon (replicon RNA, GenBank Accession No. AJ242654); assay: HCV Replicon Assay; format: cell-based; details: Hepatitis C virus, 72 h, read-out: Replicon IC50

| SMILES | melting point | IC50 [1] |
| --- | --- | --- |
| Cc1ccc2c(C#N)c(-c3ccc(S(=O)(=O)NC(CF)CF)cn3)n(C3CCCC3)c2c1F [compound 423, 6-(3-cyano-1-cyclopentyl-7-fluoro-6-methyl-1H-indol-2-yl)-N-(1,3-difluoropropan-2-yl)pyridine-3-sulfonamide] | 211 to 216 °C | < 500 nM |
| Cc1cnc(-n2c(-c3ccc(S(=O)(=O)N[C@@H](C)C(F)(F)F)cn3)c(C(N)=O)c3cc(F)c(C)cc32)cn1 [compound 904, 5-fluoro-6-methyl-1-(5-methylpyrazin-2-yl)-2-(5-{[(2S)-1,1,1-trifluoropropan-2-yl]sulfamoyl}pyridin-2-yl)-1H-indole-3-carboxamide] | 202 to 208 °C | < 500 nM |
| C[C@H](NS(=O)(=O)c1cnc(-c2c(C(N)=O)c3ccc(OC(F)F)cc3n2C2CCCCC2)nc1)C(F)(F)F [compound 746, 1-cyclohexyl-6-(difluoromethoxy)-2-(5-{[(2S)-1,1,1-trifluoropropan-2-yl]sulfamoyl}pyrimidin-2-yl)-1H-indole-3-carboxamide] | 217 to 219 °C | < 500 nM |
| C[C@H](NS(=O)(=O)c1cnc(-c2c(C#N)c3ccc(C4CC4)cc3n2C2CCCC2)nc1)C1CC1 [compound 254, 2-(3-cyano-1-cyclopentyl-6-cyclopropyl-1H-indol-2-yl)-N-[(1S)-1-cyclopropylethyl]pyrimidine-5-sulfonamide] | 185 to 189 °C | 500 to 2000 nM |
| CC(C)Oc1ccc2c(C#N)c(-c3ccc(NS(=O)(=O)C4CC4)nn3)n(C3CCC3)c2c1 [compound 274, N-{6-[3-cyano-1-cyclobutyl-6-(propan-2-yloxy)-1H-indol-2-yl]pyridazin-3-yl}cyclopropanesulfonamide] | 175 to 177 °C | 2000 to 5000 nM |
| CCc1cc2c(cc1F)c(C#N)c(-c1ccc(S(=O)(=O)NC(C)(C)C(F)(F)F)cn1)n2C1CCCC1 [compound 672, 6-(3-cyano-1-cyclopentyl-6-ethyl-5-fluoro-1H-indol-2-yl)-N-(1,1,1-trifluoro-2-methylpropan-2-yl)pyridine-3-sulfonamide] | 142 to 143 °C | < 500 nM |
| CC(C)(C)S(=O)(=O)Nc1ccc(-c2c(C#N)c3c(F)cc(C4CC4)cc3n2C2CCCCC2)nc1 [compound 1092, N-[6-(3-cyano-1-cyclohexyl-6-cyclopropyl-4-fluoro-1H-indol-2-yl)pyridin-3-yl]-2-methylpropane-2-sulfonamide] | 252 to 255 °C | < 500 nM |
| CCc1cc2c(cc1F)c(C#N)c(-c1ccc(S(=O)(=O)NC(C)(C)C)cn1)n2-c1ccccc1 [compound 884, N-tert-butyl-6-(3-cyano-6-ethyl-5-fluoro-1-phenyl-1H-indol-2-yl)pyridine-3-sulfonamide] | 175 to 180 °C | < 500 nM |
| Cc1c(F)cc2c(c1F)c(C#N)c(-c1ccc(S(=O)(=O)NC(CF)CF)cn1)n2C1CCC1 [compound 556, 6-(3-cyano-1-cyclobutyl-4,6-difluoro-5-methyl-1H-indol-2-yl)-N-(1,3-difluoropropan-2-yl)pyridine-3-sulfonamide] | 207 to 212 °C | < 500 nM |
| Cc1cc2c(cc1F)c(C#N)c(-c1ccc(S(=O)(=O)NC(C)C)cn1)n2C1CCC1 [compound 655, 6-(3-cyano-1-cyclobutyl-5-fluoro-6-methyl-1H-indol-2-yl)-N-(propan-2-yl)pyridine-3-sulfonamide] | 222 to 226 °C | < 500 nM |
| Cc1cc2c(cc1F)cc(-c1ccc(S(=O)(=O)N[C@@H](C)C(F)(F)F)cn1)n2-c1nccs1 [compound 903, 6-[5-fluoro-6-methyl-1-(1,3-thiazol-2-yl)-1H-indol-2-yl]-N-[(2S)-1,1,1-trifluoropropan-2-yl]pyridine-3-sulfonamide] | 224 to 230 °C | < 500 nM |
| Cc1ccc2c(c1)c(C#N)c(-c1ccc(S(=O)(=O)N[C@@H](C)C(F)(F)F)cn1)n2-c1ncc(F)cn1 [compound 948, 6-[3-cyano-1-(5-fluoropyrimidin-2-yl)-5-methyl-1H-indol-2-yl]-N-[(2S)-1,1,1-trifluoropropan-2-yl]pyridine-3-sulfonamide] | 202 to 207 °C | < 500 nM |
| N#Cc1c(-c2ccc(S(=O)(=O)NC(CF)CF)cn2)n(CC2CC2)c2cc(Cl)c(F)cc12 [compound 110, 6-[6-chloro-3-cyano-1-(cyclopropylmethyl)-5-fluoro-1H-indol-2-yl]-N-(1,3-difluoropropan-2-yl)pyridine-3-sulfonamide] | 202 to 204 °C | < 500 nM |
| C[C@H](NS(=O)(=O)c1cnc(-c2c(C#N)c3ccc(F)cc3n2CC2CC2)nc1)C1CC1 [compound 498, 2-[3-cyano-1-(cyclopropylmethyl)-6-fluoro-1H-indol-2-yl]-N-[(1S)-1-cyclopropylethyl]pyrimidine-5-sulfonamide] | 198 to 199 °C | 500 to 2000 nM |
| CCc1cc2c(cc1F)c(C(N)=O)c(-c1ccc(S(=O)(=O)N[C@@H](C)C(F)(F)F)cn1)n2-c1ccc(F)cc1 [compound 1019, 6-ethyl-5-fluoro-1-(4-fluorophenyl)-2-(5-{[(2S)-1,1,1-trifluoropropan-2-yl]sulfamoyl}pyridin-2-yl)-1H-indole-3-carboxamide] | 210 to 217 °C | < 500 nM |
| CC(C)(NS(=O)(=O)c1ccc(-c2c(C(N)=O)c3cc(F)c(OC(F)F)cc3n2C2CCC2)nc1)C(F)(F)F [compound 729, 1-cyclobutyl-6-(difluoromethoxy)-5-fluoro-2-{5-[(1,1,1-trifluoro-2-methylpropan-2-yl)sulfamoyl]pyridin-2-yl}-1H-indole-3-carboxamide] | 207 to 209 °C | < 500 nM |
| Cc1cc2c(cc1F)c(C#N)c(-c1ccc(S(=O)(=O)N[C@@H](C)C(F)(F)F)cn1)n2-c1ccncn1 [compound 896, 6-[3-cyano-5-fluoro-6-methyl-1-(pyrimidin-4-yl)-1H-indol-2-yl]-N-[(2S)-1,1,1-trifluoropropan-2-yl]pyridine-3-sulfonamide] | 214 to 219 °C | < 500 nM |
| C[C@H](NS(=O)(=O)c1ccc(-c2c(C#N)c3cc(F)c(OC(F)F)cc3n2C2CCCC2)nc1)C(F)(F)F [compound 574, 6-[3-cyano-1-cyclopentyl-6-(difluoromethoxy)-5-fluoro-1H-indol-2-yl]-N-[(2S)-1,1,1-trifluoropropan-2-yl]pyridine-3-sulfonamide] | 181 to 184 °C | < 500 nM |
| CCc1cc2c(cc1F)c(C#N)c(-c1ccc(S(=O)(=O)N[C@@H](C)C(F)(F)F)cn1)n2-c1cc(Cl)ccn1 [compound 993, 6-[1-(4-chloropyridin-2-yl)-3-cyano-6-ethyl-5-fluoro-1H-indol-2-yl]-N-[(2S)-1,1,1-trifluoropropan-2-yl]pyridine-3-sulfonamide] | 185 to 190 °C | < 500 nM |
| CC(C)NS(=O)(=O)c1ccc(-c2c(C#N)c3cccc(F)c3n2C2CCCC2)nc1 [compound 66, 6-(3-cyano-1-cyclopentyl-7-fluoro-1H-indol-2-yl)-N-(propan-2-yl)pyridine-3-sulfonamide] | 152 to 153 °C | < 500 nM |
| CC(C)Oc1ccc2c(C#N)c(-c3ccc(NS(=O)(=O)C(C)C)cn3)n(CC3CC3)c2c1 [compound 281, N-{6-[3-cyano-1-(cyclopropylmethyl)-6-(propan-2-yloxy)-1H-indol-2-yl]pyridin-3-yl}propane-2-sulfonamide] | 168 to 172 °C | 500 to 2000 nM |
| Cc1c(F)cc2c(C#N)c(-c3ccc(S(=O)(=O)N[C@H](C)C(F)(F)F)cn3)n(C3CCCC3)c2c1F [compound 653, 6-(3-cyano-1-cyclopentyl-5,7-difluoro-6-methyl-1H-indol-2-yl)-N-[(2R)-1,1,1-trifluoropropan-2-yl]pyridine-3-sulfonamide] | 212 to 217 °C | < 500 nM |
| CCc1cc2c(cc1F)c(C#N)c(-c1ccc(S(=O)(=O)N[C@H](C)C(F)(F)F)cn1)n2-c1ccc(F)cn1 [compound 880, 6-[3-cyano-6-ethyl-5-fluoro-1-(5-fluoropyridin-2-yl)-1H-indol-2-yl]-N-[(2R)-1,1,1-trifluoropropan-2-yl]pyridine-3-sulfonamide] | 209 to 216 °C | < 500 nM |
| Cc1cc(F)c2c(C#N)c(-c3ccc(S(=O)(=O)N[C@@H](C)C(F)(F)F)cn3)n(C3CCCC3)c2c1 [compound 625, 6-(3-cyano-1-cyclopentyl-4-fluoro-6-methyl-1H-indol-2-yl)-N-[(2S)-1,1,1-trifluoropropan-2-yl]pyridine-3-sulfonamide] | 207 to 211 °C | < 500 nM |
| C[C@H](NS(=O)(=O)c1cnc(-c2c(C#N)c3cc(Cl)ccc3n2C2CCCC2)nc1)C(F)(F)F [compound 419, 2-(5-chloro-3-cyano-1-cyclopentyl-1H-indol-2-yl)-N-[(2S)-1,1,1-trifluoropropan-2-yl]pyrimidine-5-sulfonamide] | 243 to 249 °C | 500 to 2000 nM |
| Cc1nc(NS(=O)(=O)C(C)(C)C)ccc1-c1c(C(N)=O)c2cc(F)c(OC(F)F)cc2n1C(C)C [compound 1095, 2-{6-[(tert-butylsulfonyl)amino]-2-methylpyridin-3-yl}-6-(difluoromethoxy)-5-fluoro-1-(propan-2-yl)-1H-indole-3-carboxamide] | 234 to 235 °C | 500 to 2000 nM |
| N#Cc1c(-c2ccc(S(=O)(=O)NC(CF)CF)cn2)n(-c2ccccc2)c2cc(C3CC3)ccc12 [compound 95, 6-(3-cyano-6-cyclopropyl-1-phenyl-1H-indol-2-yl)-N-(1,3-difluoropropan-2-yl)pyridine-3-sulfonamide] | 171 to 175 °C | < 500 nM |
| CCc1cc2c(cc1F)c(C#N)c(-c1ccc(S(=O)(=O)NC3(C(F)(F)F)CC3)cn1)n2C1CCCC1 [compound 637, 6-(3-cyano-1-cyclopentyl-6-ethyl-5-fluoro-1H-indol-2-yl)-N-[1-(trifluoromethyl)cyclopropyl]pyridine-3-sulfonamide] | 198 to 199 °C | < 500 nM |
